Measurements published in US20260027068A1, “METHODS OF ADM[…]-KETAMINE” (Perception Neuroscience, Inc., priority 2022, published 2026).

Experiments:
[1] = tested on: social defeat stress model in mice; details: cited from earlier work
subjects with TRD = test: MADRS total score after a single 40-minute IV infusion, double-blind placebo-controlled study in TRD; format: in vivo, human; details: 30 mg; for Change from Baseline MADRS Total Score, Adjusted mean (SE) / Diff. Adjusted mean (SE) R(−)ketamine - Placebo: MMRM
Experimental: This was a double-blind, randomized, placebo-controlled, multicenter study comprised of 3 phases: screening (up to 2 weeks [day-15 to day-2]), in-clinic treatment (day-1 to day 2; including double-blind treatment [day 1]), and post-treatment follow-up (7 and 14 days after infusion on days 8 and 15, respectively). The study consisted of 3 arms: placebo, R(−)-ketamine solution (30 mg), and R(−)-ketamine solution (60 mg.) A total of 101 adult subjects with TRD were randomly allocated in cohorts of 33-35 subjects/arm to the 3 arms of the study in a blinded manner.
The subjects were randomized within 14 days of screening (Visit 1). Subjects were admitted to the clinic the evening prior to study treatment administration (day-1, Visit 2) and underwent baseline testing to ensure continued study eligibility. Study treatments were infused IV over 40 minutes the next morning (day 1, Visit 2). Starting immediately prior to dosing, subjects were monitored closely for safety.
To determine the efficacy of two doses (30 mg and 60 mg) of intravenous (IV) R(−)-ketamine hydrochloride, the doses were administered as an IV infusion over 40 minutes. These doses are within the range shown to be well-tolerated in a Phase 1 study in healthy volunteers. […] The 10-item clinician-administered MADRS was designed to be used in subjects with MDD to measure the overall severity of depressive symptoms. The MADRS scale is validated, reliable, and acceptable to regulatory health authorities as a primary scale to determine efficacy in major depression.
Population: Subjects with TRD in the full analysis set (FAS) and analyzed according to their randomized treatment. The analysis population includes all randomized subjects who receive any amount of study treatment and have at least one postbaseline assessment available. Variable: Change in total MADRS score from baseline at 24 hours after the start of infusion.
MADRS total score was assessed at 2 and 4 hours, 7 and 14 days after the start of the infusion (days 8 and 15, respectively). Note, for the 2-hour and 4-hour recall periods, the sleep and appetite items were not assessed.
Proportion of subjects with ≥50% improvement in MADRS total score at 24 hours, 7 days, and 14 days after start of infusion (days 8 and 15, respectively).
Proportion of subjects with a MADRS total score≤10 at 24 hours, 7 days, and 14 days after start of infusion (days 8 and 15, respectively).
The 10-item MADRS was administered by the study staff to measure the overall severity of depressive symptoms. The MADRS total score was assessed at screening and baseline (Day 1 pre-dose). The primary efficacy endpoint of improvement in the MADRS total score was evaluated prior to discharge on Day 2 of Visit 2, 24 hours after the start of the infusion of study treatment. The MADRS total score was also assessed at 2 hours, 4 hours, 7 days (on Day 8), and 14 days (on Day 15) after the start of the infusion to evaluate the secondary efficacy endpoints of response (defined as ≥50% improvement in the MADRS total score from pre-dose) and remission (defined as MADRS total score≤10) in the improvement of depressive symptoms in the subjects. While the MADRS is typically used with a 7-day recall period, versions of the MADRS including 2-hour and […] recall periods were used in this study. (For the 2 hour and 4 hour periods, the sleep and appetite items were […]; pre-dose scores for these items obtained on the same day were carried forward).
The change from baseline in MADRS scores was summarized separately by treatment arm for each visit. Associated baseline scores were taken as the last corresponding measurement prior to the first dose of IMP in the treatment period (i.e., Visit 2, pre-dose). The primary endpoint of change from baseline MADRS total score at 24 hours post start of infusion was evaluated using a mixed effects model for repeated measure (MMRM) analysis with observed cases only. […]

[2] = Day 1, 24 hours, primary endpoint

CN[C@@]1(c2ccccc2Cl)CCCCC1=O.Cl [R(−)-ketamine, (2R)-2-(2-chlorophenyl)-2-(methylamino)cyclohexan-1-one]
Anti-depressant effects [1]: more potent and long lasting anti-depressant effects when compared to S(+)-ketamine
MADRS total score, Mean (subjects with TRD; 2 hours): 20.7
MADRS total score, Median (subjects with TRD; 2 hours): 21.0
MADRS total score, Mean (subjects with TRD; 4 hours): 19.2
MADRS total score, Median (subjects with TRD; 4 hours): 19.0
MADRS total score, Mean (subjects with TRD; 24 hours (Day 2)): 16.7
MADRS total score, Median (subjects with TRD; 24 hours (Day 2)): 13.0
Not-responder, % (subjects with TRD; Day 1, 2 hours): 72.7%
Responder (>=50% improvement of MADRS total score), % (subjects with TRD; Day 1, 2 hours): (27.3) %
adjusted odds ratio R-ket/placebo (95% CI) (subjects with TRD; Day 1, 2 hours): 1.667 (0.503, 5.520)
Change from Baseline MADRS Total Score, Adjusted mean (SE) (subjects with TRD; Day 1, 2 hours): −9.7 (1.35)
Diff. Adjusted mean (SE) R(−)ketamine - Placebo (subjects with TRD; Day 1, 2 hours): −0.6 (1.85) [−4.24, 3.08]
Not-responder, % (subjects with TRD; Day 1, 4 hours): 72.7%
Responder (>=50% improvement of MADRS total score), % (subjects with TRD; Day 1, 4 hours): (27.3) %
adjusted odds ratio R-ket/placebo (95% CI) (subjects with TRD; Day 1, 4 hours): 0.963 (0.317, 2.928)
Change from Baseline MADRS Total Score, Adjusted mean (SE) (subjects with TRD; Day 1, 4 hours): −11.2 (1.36)
Diff. Adjusted mean (SE) R(−)ketamine - Placebo (subjects with TRD; Day 1, 4 hours): −0.1 (1.86) [−3.81, 3.56]
Not-responder, % (subjects with TRD; Day 1, 24 hours): 42.4%
Responder (>=50% improvement of MADRS total score), % (subjects with TRD; Day 1, 24 hours): (57.6) %
adjusted odds ratio R-ket/placebo (95% CI) (subjects with TRD; Day 1, 24 hours): 1.418 (0.524, 3.837)
Change from Baseline MADRS Total Score, Adjusted mean (SE) (subjects with TRD; [2]): −13.7 (1.75)
Diff. Adjusted mean (SE) R(−)ketamine - Placebo (subjects with TRD; [2]): −0.0 (2.42) [−4.84, 4.77]
MADRS total score, Mean (subjects with TRD; Day 8): 19.9
MADRS total score, Median (subjects with TRD; Day 8): 22.0
Not-responder, % (subjects with TRD; Day 8): 70.0%
Responder (>=50% improvement of MADRS total score), % (subjects with TRD; Day 8): (30.0) %
adjusted odds ratio R-ket/placebo (95% CI) (subjects with TRD; Day 8): 1.040 (0.336, 3.212)
Change from Baseline MADRS Total Score, Adjusted mean (SE) (subjects with TRD; Day 8): −10.4 (1.81)
Diff. Adjusted mean (SE) R(−)ketamine - Placebo (subjects with TRD; Day 8): 1.0 (2.51) [−4.01, 5.94]
MADRS total score, Mean (subjects with TRD; Day 15): 22.8
MADRS total score, Median (subjects with TRD; Day 15): 24.0
Not-responder, % (subjects with TRD; Day 15): 83.9%
Responder (>=50% improvement of MADRS total score), % (subjects with TRD; Day 15): (16.1) %
adjusted odds ratio R-ket/placebo (95% CI) (subjects with TRD; Day 15): 0.621 (0.169, 2.282)
Change from Baseline MADRS Total Score, Adjusted mean (SE) (subjects with TRD; Day 15): −7.5 (1.82)
Diff. Adjusted mean (SE) R(−)ketamine - Placebo (subjects with TRD; Day 15): 2.4 (2.53) [−2.62, 7.40]
MADRS total score change from baseline, Mean (subjects with TRD; to 2 hours): −8.8
MADRS total score change from baseline, Median (subjects with TRD; to 2 hours): −7.0
MADRS total score change from baseline, Mean (subjects with TRD; to 4 hours): −10.4
MADRS total score change from baseline, Median (subjects with TRD; to 4 hours): −10.0
MADRS total score change from baseline, Mean (subjects with TRD; to 24 hours): −12.8
MADRS total score change from baseline, Median (subjects with TRD; to 24 hours): −15.0
MADRS total score change from baseline, Mean (subjects with TRD; to Day 8): −9.8
MADRS total score change from baseline, Median (subjects with TRD; to Day 8): −7.0
MADRS total score change from baseline, Mean (subjects with TRD; to Day 15): −6.6
MADRS total score change from baseline, Median (subjects with TRD; to Day 15): −5.0
